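Values below derive from 48-hour exposures of cells grown in 96-well plates, with endpoints linearly interpolated between the two concentrations bracketing the appropriate inhibition level. At the GI50, growth is halved. TGI is the concentration that stops growth completely.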
Columns and labels:
Assay in all cases: NCI anticancer screen, dose series, 48 h
A498 renal = test system: A498 renal
CAKI-1 renal = test system: CAKI-1 renal
HCT-116 colon = test system: HCT-116 colon
HCT-15 colon = test system: HCT-15 colon
HOP-92 NSCLC = test system: HOP-92 NSCLC
MCF7 breast = test system: MCF7 breast
NCI-H226 lung = test system: NCI-H226 lung
OVCAR-8 ovarian = test system: OVCAR-8 ovarian
SF-268 CNS = test system: SF-268 CNS
SK-MEL-5 melanoma = test system: SK-MEL-5 melanoma

SMILES: COc1ccc(-n2c3c(c4c(CN5CCOCC5)c(O)ccc42)CCc2ccccc2C3=O)cc1
- GI50 (A498 renal): > 100 µM
- TGI (A498 renal): > 100 µM
- GI50 (CAKI-1 renal): 37.8 µM
- TGI (CAKI-1 renal): > 100 µM
- GI50 (HCT-116 colon): > 100 µM
- TGI (HCT-116 colon): > 100 µM
- GI50 (HCT-15 colon): > 100 µM
- TGI (HCT-15 colon): > 100 µM
- GI50 (HOP-92 NSCLC): 59.5 µM
- TGI (HOP-92 NSCLC): > 100 µM
- GI50 (MCF7 breast): > 100 µM
- TGI (MCF7 breast): > 100 µM
- GI50 (NCI-H226 lung): 54.5 µM
- TGI (NCI-H226 lung): > 100 µM
- GI50 (OVCAR-8 ovarian): 64.4 µM
- TGI (OVCAR-8 ovarian): > 100 µM
- GI50 (SF-268 CNS): > 100 µM
- TGI (SF-268 CNS): > 100 µM
- GI50 (SK-MEL-5 melanoma): 63.1 µM
- TGI (SK-MEL-5 melanoma): > 100 µM

SMILES: c1cn2cc(-c3ccc4cn[nH]c4c3)nc(Nc3ccc(N4CCOCC4)cc3)c2n1
- GI50 (A498 renal): 11.9 µM
- TGI (A498 renal): 36.2 µM
- GI50 (CAKI-1 renal): 8.4 µM
- TGI (CAKI-1 renal): 44.3 µM
- GI50 (HCT-116 colon): 10.1 µM
- TGI (HCT-116 colon): 23.3 µM
- GI50 (HCT-15 colon): 11.7 µM
- TGI (HCT-15 colon): 41.1 µM
- GI50 (HOP-92 NSCLC): 15.6 µM
- TGI (HOP-92 NSCLC): 33.8 µM
- GI50 (MCF7 breast): 10.6 µM
- TGI (MCF7 breast): 25.1 µM
- GI50 (NCI-H226 lung): 4.82 µM
- TGI (NCI-H226 lung): 24.6 µM
- GI50 (OVCAR-8 ovarian): 4.87 µM
- TGI (OVCAR-8 ovarian): 21.8 µM
- GI50 (SF-268 CNS): 5.11 µM
- TGI (SF-268 CNS): 27.4 µM
- GI50 (SK-MEL-5 melanoma): 15.5 µM
- TGI (SK-MEL-5 melanoma): 40.1 µM

SMILES: N#CCc1ncc(-c2ccc(C(F)(F)F)cc2)c(NC2CCCCCC2)n1
- GI50 (A498 renal): > 10 µM
- TGI (A498 renal): > 10 µM
- GI50 (CAKI-1 renal): > 10 µM
- TGI (CAKI-1 renal): > 10 µM
- GI50 (HCT-116 colon): > 10 µM
- TGI (HCT-116 colon): > 10 µM
- GI50 (HCT-15 colon): > 10 µM
- TGI (HCT-15 colon): > 10 µM
- GI50 (HOP-92 NSCLC): > 10 µM
- TGI (HOP-92 NSCLC): > 10 µM
- GI50 (MCF7 breast): > 10 µM
- TGI (MCF7 breast): > 10 µM
- GI50 (NCI-H226 lung): > 10 µM
- TGI (NCI-H226 lung): > 10 µM
- GI50 (OVCAR-8 ovarian): > 10 µM
- TGI (OVCAR-8 ovarian): > 10 µM
- GI50 (SF-268 CNS): > 10 µM
- TGI (SF-268 CNS): > 10 µM
- GI50 (SK-MEL-5 melanoma): > 10 µM
- TGI (SK-MEL-5 melanoma): > 10 µM

SMILES: CN(C)C(=O)c1cc2cnc(Nc3ccc(-c4csc5c(=O)cc(N6CCOCC6)oc45)cc3)nc2n1C1CCCC1
- GI50 (A498 renal): 0.0547 µM
- TGI (A498 renal): 0.244 µM
- GI50 (CAKI-1 renal): 0.152 µM
- TGI (CAKI-1 renal): 1.15 µM
- GI50 (HCT-116 colon): 0.169 µM
- TGI (HCT-116 colon): 0.815 µM
- GI50 (HCT-15 colon): 0.224 µM
- TGI (HCT-15 colon): 1.35 µM
- GI50 (HOP-92 NSCLC): 0.0541 µM
- TGI (HOP-92 NSCLC): 41.9 µM
- GI50 (MCF7 breast): 0.0881 µM
- TGI (MCF7 breast): 1.01 µM
- GI50 (NCI-H226 lung): 0.229 µM
- TGI (NCI-H226 lung): 2.04 µM
- GI50 (OVCAR-8 ovarian): 0.268 µM
- TGI (OVCAR-8 ovarian): > 30.5 µM
- GI50 (SF-268 CNS): 0.222 µM
- GI50 (SK-MEL-5 melanoma): 0.146 µM
- TGI (SK-MEL-5 melanoma): 0.423 µM

SMILES: O=C(CCl)N1c2ccccc2Sc2ccc3ccccc3c21
- GI50 (A498 renal): 1.73 µM
- TGI (A498 renal): 3.31 µM
- GI50 (CAKI-1 renal): 0.498 µM
- TGI (CAKI-1 renal): 0.95 µM
- GI50 (HCT-116 colon): 0.652 µM
- TGI (HCT-116 colon): 2.06 µM
- GI50 (HCT-15 colon): 1.09 µM
- TGI (HCT-15 colon): 2.53 µM
- GI50 (HOP-92 NSCLC): 1.16 µM
- TGI (HOP-92 NSCLC): 2.51 µM
- GI50 (MCF7 breast): 1.49 µM
- TGI (MCF7 breast): 3.29 µM
- GI50 (NCI-H226 lung): 2.36 µM
- TGI (NCI-H226 lung): 5.5 µM
- GI50 (OVCAR-8 ovarian): 1.64 µM
- TGI (OVCAR-8 ovarian): 3.71 µM
- GI50 (SF-268 CNS): 1.64 µM
- TGI (SF-268 CNS): 3.16 µM
- GI50 (SK-MEL-5 melanoma): 1.6 µM
- TGI (SK-MEL-5 melanoma): 2.96 µM

SMILES: Cc1cc(Cc2cc(C)cc(C(C)(C)C)c2O)c(O)c(C(C)(C)C)c1
- GI50 (A498 renal): 12.9 µM
- TGI (A498 renal): 25.5 µM
- GI50 (CAKI-1 renal): 2.36 µM
- TGI (CAKI-1 renal): 8.03 µM
- GI50 (HCT-116 colon): 3.13 µM
- TGI (HCT-116 colon): 11.7 µM
- GI50 (HCT-15 colon): 4.29 µM
- TGI (HCT-15 colon): 14.5 µM
- GI50 (HOP-92 NSCLC): 4.37 µM
- TGI (HOP-92 NSCLC): 16 µM
- GI50 (MCF7 breast): 3.47 µM
- TGI (MCF7 breast): 12.7 µM
- GI50 (NCI-H226 lung): 14.2 µM
- TGI (NCI-H226 lung): 30 µM
- GI50 (OVCAR-8 ovarian): 5.17 µM
- TGI (OVCAR-8 ovarian): 16.4 µM
- GI50 (SF-268 CNS): 5.06 µM
- TGI (SF-268 CNS): 17.3 µM
- GI50 (SK-MEL-5 melanoma): 10.6 µM
- TGI (SK-MEL-5 melanoma): 22.4 µM

SMILES: Cc1cc(C)c(O)c(CN(C)Cc2cc(Cl)cc(Cl)c2O)c1
- GI50 (A498 renal): 5.69 µM
- TGI (A498 renal): 21.9 µM
- GI50 (CAKI-1 renal): 2.77 µM
- TGI (CAKI-1 renal): 12.2 µM
- GI50 (HCT-116 colon): 3.23 µM
- TGI (HCT-116 colon): 10.8 µM
- GI50 (HCT-15 colon): 3.41 µM
- TGI (HCT-15 colon): 16.8 µM
- GI50 (HOP-92 NSCLC): 3.07 µM
- TGI (HOP-92 NSCLC): 13.3 µM
- GI50 (MCF7 breast): 3.28 µM
- TGI (MCF7 breast): 14.3 µM
- GI50 (NCI-H226 lung): 6.56 µM
- TGI (NCI-H226 lung): 23.1 µM
- GI50 (OVCAR-8 ovarian): 2.78 µM
- TGI (OVCAR-8 ovarian): 12.1 µM
- GI50 (SF-268 CNS): 3.26 µM
- TGI (SF-268 CNS): 19.2 µM
- GI50 (SK-MEL-5 melanoma): 5.57 µM
- TGI (SK-MEL-5 melanoma): 18.2 µM

SMILES: Cc1ccc2c(O)c(O)cc(NC(C)CCCN)c2n1 (centres undefined)
- GI50 (A498 renal): > 100 µM
- TGI (A498 renal): > 100 µM
- GI50 (CAKI-1 renal): 21.8 µM
- TGI (CAKI-1 renal): > 54.7 µM
- GI50 (HCT-116 colon): 3.06 µM
- TGI (HCT-116 colon): > 40 µM
- GI50 (HCT-15 colon): > 79.1 µM
- TGI (HCT-15 colon): > 100 µM
- GI50 (HOP-92 NSCLC): 57.5 µM
- TGI (HOP-92 NSCLC): > 100 µM
- GI50 (MCF7 breast): 2.65 µM
- TGI (MCF7 breast): 9.82 µM
- GI50 (NCI-H226 lung): 44.9 µM
- TGI (NCI-H226 lung): > 100 µM
- GI50 (OVCAR-8 ovarian): 4.35 µM
- TGI (OVCAR-8 ovarian): > 100 µM
- GI50 (SF-268 CNS): 16.7 µM
- TGI (SF-268 CNS): 66.2 µM
- GI50 (SK-MEL-5 melanoma): 9.38 µM
- TGI (SK-MEL-5 melanoma): 25.3 µM

SMILES: O=C(O)c1ccc(N/C=C2\C(=O)c3ccccc3OC2O)cc1O (centres undefined)
- GI50 (A498 renal): 36.9 µg/mL
- TGI (A498 renal): 83.9 µg/mL
- GI50 (CAKI-1 renal): 10.8 µg/mL
- TGI (CAKI-1 renal): 32.5 µg/mL
- GI50 (HCT-116 colon): 17.9 µg/mL
- TGI (HCT-116 colon): 42.7 µg/mL
- GI50 (HCT-15 colon): 6.17 µg/mL
- TGI (HCT-15 colon): 26.6 µg/mL
- GI50 (HOP-92 NSCLC): 4.11 µg/mL
- TGI (HOP-92 NSCLC): 36.5 µg/mL
- GI50 (MCF7 breast): 12.6 µg/mL
- TGI (MCF7 breast): 81.8 µg/mL
- GI50 (NCI-H226 lung): 46.5 µg/mL
- TGI (NCI-H226 lung): > 150 µg/mL
- GI50 (OVCAR-8 ovarian): 22 µg/mL
- TGI (OVCAR-8 ovarian): 97.2 µg/mL
- GI50 (SF-268 CNS): 21.8 µg/mL
- TGI (SF-268 CNS): 134 µg/mL
- GI50 (SK-MEL-5 melanoma): 17.6 µg/mL
- TGI (SK-MEL-5 melanoma): 37.6 µg/mL

Reference: PubChem BioAssay (NCI)
